Read-outs that look alike come from different tables or passages of the source.
Tests used:
DENV2 NGC = experiment: Efficacy study (EC50) in DENV2 infected Vero cells, plaque titration; type: cell-based, Dengue virus; settings: for EC50: DENV2 NGC (M.O.I. of 0.1) infected Vero cells, plaque titration, 3 days; for TI (therapeutic index, CC50/EC50): Vero CC50 / DENV2 EC50
Protocol: Next, we studied the efficacies (EC50) of the phenolic lipid homologues against DENV2 infectivity in Vero cells. Briefly, compounds at 10 different concentrations were added to DENV2-infected Vero cells (M.O.I. of 0.1) during and post infection and the viral inhibition was determined by plaque titration. […] Noted that anacardic acids were major components of CNSL extracts and all homologues were purified directly from CNSL itself.
Next, each homologue was analyzed for effective concentration (EC50). Vero (5 × 10^4) cells were seeded, and infected with DENV2 (M.O.I. of 0.1) as previously described. Phenolic lipid mixtures and homologues were serially diluted in DMSO to the final concentrations as follows; 0, 0.5, 1, 1.5, 2, 2.5, 5, 7.5, 10, 25, and 50 µM. DMSO at the concentration of 1% was used as a mock treatment referring to 100% infection. Infected cells were treated with the designated compounds during and post infection. Supernatants were collected at 3 days after infection for analysis of virion production by plaque titration. Non-linear regression analysis was used to determine the effective concentrations. […] The therapeutic index (TI) was a ration of CC50/EC50 of the compound.

[1] = Cytotoxic concentration (CC50), MTS; type: cell-based; settings: African green monkey, Vero cells
Protocol: Cytotoxic concentrations (CC50) were also studied using Vero cells. Briefly, the 10^4 cells were seeded into each well of 96-well plates. After an overnight incubation, phenolic lipids were serially diluted in DMSO to the final concentrations as follows; 25, 50, 100, 200, 300, 400, and 500 µM. Each concentration was performed in quadruplicates. DMSO at 1% was used as a mock treatment referring to 100% cell viability. Cells were incubated for 48 h before cell viability was accessed using CellTiler 96® Aqueous One Solution Cell Proliferation Assay kit (Promega, Wisconsin, USA). Non-linear regression analysis was used to determine cytotoxic concentrations (CC50) of each experiment.

K562 = system: K562; design: method as in PMID 25726174; settings: cited from earlier work
hepatitis C virus (HCV) = system: hepatitis C virus (HCV); design: method as in PMID 25658101; settings: cited from earlier work
AGS = system: AGS; design: method as in PMID 25726174; settings: cited from earlier work
Solubility in DMSO = type: physicochemical
[2] = system: BHK-21/DENV2 replicon cells; experiment: Replicon inhibition study, RT-qPCR of DENV2 NS1; type: cell-based, Dengue virus; settings: 72 h
Protocol: We analyzed the replication inhibition using BHK-21/DENV2 replicon cells stably expressed the non-structural proteins. Cardol triene at 10 µM and 20 µM were added to the replicon cells for 72 h and the replication inhibition was accessed by RT-qPCR of DENV2 NS1. Ribavirin, a known inhibitor of flaviviral replication, was used as a positive inhibition control. […] Replicon cell viability under cardol triene treatment was also analyzed using an MTS assay. […] Therefore, we concluded that cardol triene inhibited DENV RNA replicon replication, potentially in dose-dependent manner.
BHK-21 (5 × 10^4) cells expressing DENV-2 replicon (BHK-21/DENV2)[44] were seeded as previously described. Cardol triene at 10 µM and 20 µM, DMSO, and ribavirin (TargetMol, USA) were added to the replicon cells and incubated at 37 °C for 3 days. Cells lysates were collected and viral RNA was quantified by RT-qPCR as previously described. Data were reported as percent inhibition compared with ribavirin. Three biological replicates were performed and results were means and SEM of all replicates.

[3] = Dengue virus, 72 h, read-out: EC50

Row | SMILES | EC50 (DENV2 NGC; [3]) [µM] | TI (therapeutic index, CC50/EC50) (DENV2 NGC) | CC50 at 48 h [1] [µM] | further results
1 | C=CC/C=C/C/C=C/CCCCCCCc1cccc(O)c1C(=O)O [Anacardic acid triene, 6-[8(Z), 11(Z), 14-pentadecatrienyl]salicylic acid] | 7.48 ± 2.14 | 15.38 | 115 ± 14.1 | –
2 | CCCCCCCCCCCCCCCc1cccc(O)c1 [Cardanol saturated] | 5.89 ± 2.83 | 7.39 | 43.5 ± 1.1 | –
3 | CCCCCCCCCCCCCCCc1cccc(O)c1C(=O)O [Anacardic acid saturated, 6-pentadecylsalicylic acid] | 4.31 ± 1.17 | 15.39 | 66.3 ± 1.58 | CC50 (K562): 25.4 µM; EC50 (hepatitis C virus (HCV)): 7.25 µM; CC50 (AGS): 41.6 µM
4 | C=CC/C=C/C/C=C/CCCCCCCc1cccc(O)c1 [Cardanol triene, 3-[8(Z), 11(Z), 14-pentadecatrienyl]phenol] | – | – | – | solubility in DMSO (Solubility in DMSO): insoluble
5 | CCCCCCCCCCCCCCCc1cc(O)cc(O)c1 [Cardol saturated] | 12.7 ± 0.67 | 4.62 | 58.75 ± 0.43 | –
6 | CCCCCC/C=C\CCCCCCCc1cccc(O)c1C(=O)O [Anacardic acid monoene, 6-[8(Z)-pentadecenyl]salicylic acid] | 12.6 ± 0.84 | 5.88 | 74 ± 0.85 | –
7 | CCC/C=C/C/C=C/CCCCCCCc1cccc(O)c1C(=O)O [Anacardic acid diene, 6-[8(Z), 11(Z)-pentadecadienyl]salicylic acid] | – | – | 112 ± 8.57 | EC50 (DENV2 NGC): Not inhibited
8 | NC(=O)c1ncn([C@@H]2O[C@H](CO)[C@@H](O)[C@H]2O)n1 [ribavirin, reference compound] | – | – | – | DENV2 RNA inhibition ([2]; 10 µM): 98.42 ± 0.68%; DENV2 RNA inhibition ([2]; 20 µM): 98.09 ± 0.72%

Source: article PMC6226472, “Cardol triene inhibits dengue infectivity by targeting kl loops and preventing envelope fusion” (Scientific Reports, 2018)
